Tests used:
[1] = system: interleukin-6 (IL-6) generation; assay: Inhibition of interleukin-6 (IL-6) generation in LPS-treated Raw 264.7 cells (ELISA); format: cell-based, mouse; conditions: Mus musculus, RAW264.7; Raw 264.7, LPS treated; read-out: Grades of IC50 on IL-6 generation
Experimental: Raw 264.7 cells were distributed by the same manner as described in Experimental Example <2-1>, and IL-6 included in the supernatant treated with each sample at different concentrations was measured by enzyme-linked immunosorbent assay (IL-6 ELISA kit, BD Bioscience, San Diego, Calif.).
Particularly, 10-fold diluted supernatant was distributed in a 96-well plate on which IL-6 antibody was attached, followed by adhesion for 2 hours. The supernatant remaining after the adhesion was washed with a washing buffer. The detection antibody and HRP were adhered on the washed plate for 1 hour. The remaining antibody was washed. Color development was induced by using TMB substrate. The reaction was terminated with sulfuric acid solution. Then, OD450 was measured. IL-6 in the supernatant was quantified by using the standard curve made with the standard IL-6 included in the kit. IL-6 suppression rate was calculated by measuring the same concentration that could inhibit IL-6 generation up to 50% in the LPS treated group and the results are shown in Table 8.

[2] = Toxicity test, single oral administration: toxicological changes in abdomen, chest and major organs (autopsy); format: in vivo; conditions: for Clinical sign: Abdominal cavity (toxicological changes, animals affected/total) / Clinical sign: Major organs (toxicological changes, animals affected/total) / Clinical sign: Thoracic cavity (toxicological changes, animals affected/total) / Mortality (animals dead/total) / Clinical sign: Abdominal cavity (toxicological changes), Total / Clinical sign: Major organs (toxicological changes), Total / Clinical sign: Thoracic cavity (toxicological changes), Total / Mortality, Total: single oral administration, mouse
Description: 1. Test Material and Control Material • Test material: compound of Example 4 • Storage condition: frozen storage • Control material: 10% DMSO+10% Tween 20 in PBS
2. Test System • Animal: female Balb/c • Animal provider: Koatech • Age and weight of animal • Age at the time of arrival: 5 week • Number at the time of arrival: 28 • Age at the start of administration: 6 week • Number at the start of administration: 28 ? • Weight at the start of administration: 16.1˜16.5 g
3. Administration Method and Preparation of Test Material • Administration method: single oral administration • Preparation of test material: Test materials were prepared by using 10% DMSO+10% Tween-20 in PBS as a solvent for each dose. The preparation was carried out immediately before the administration
On the 10th day after the administration, all the surviving animals were anesthetized with CO2 gas. Laparotomy was performed and the animals were sacrificed by venesection from the abdominal aorta. Then, all the internal organs of the animal were observed by the naked eye.
The compound of Example 4 was orally administered once to female Balb/c mouse at the doses of 250, 500, and 1000 mg/kg in order to obtain the information on acute toxicity of the compound of Example 4, followed by investigation of death rate, general symptoms, and weight changes for 10 days by autopsy.
After the administration of the compound of Example 4, the mice were autopsied on the last day, and the toxicological changes in the abdomen, chest and major organs were observed.

COc1cc(CCCO)cc2cc(-c3ccc(C)cc3)oc12 [Example 4, 3-(7-methoxy-2-p-tolylbenzofuran-5-yl)propane-1-ol]
IC50 [1]: ≤ 10 µM
Clinical sign: Abdominal cavity (toxicological changes, animals affected/total) ([2]; 250 mg/kg, Day 1): 0/7
Clinical sign: Major organs (toxicological changes, animals affected/total) ([2]; 250 mg/kg, Day 1): 0/7
Clinical sign: Thoracic cavity (toxicological changes, animals affected/total) ([2]; 250 mg/kg, Day 1): 0/7
Mortality (animals dead/total) ([2]; 250 mg/kg, Day 1): 0/7
Clinical sign: Abdominal cavity (toxicological changes, animals affected/total) ([2]; 250 mg/kg, Day 7): 0/7
Clinical sign: Major organs (toxicological changes, animals affected/total) ([2]; 250 mg/kg, Day 7): 0/7
Clinical sign: Thoracic cavity (toxicological changes, animals affected/total) ([2]; 250 mg/kg, Day 7): 0/7
Mortality (animals dead/total) ([2]; 250 mg/kg, Day 7): 0/7
Clinical sign: Abdominal cavity (toxicological changes, animals affected/total) ([2]; 250 mg/kg, Day 8): 0/7
Clinical sign: Major organs (toxicological changes, animals affected/total) ([2]; 250 mg/kg, Day 8): 0/7
Clinical sign: Thoracic cavity (toxicological changes, animals affected/total) ([2]; 250 mg/kg, Day 8): 0/7
Mortality (animals dead/total) ([2]; 250 mg/kg, Day 8): 0/7
Clinical sign: Abdominal cavity (toxicological changes, animals affected/total) ([2]; 250 mg/kg, Day 9): 0/7
Clinical sign: Major organs (toxicological changes, animals affected/total) ([2]; 250 mg/kg, Day 9): 0/7
Clinical sign: Thoracic cavity (toxicological changes, animals affected/total) ([2]; 250 mg/kg, Day 9): 0/7
Mortality (animals dead/total) ([2]; 250 mg/kg, Day 9): 0/7
Clinical sign: Abdominal cavity (toxicological changes, animals affected/total) ([2]; 250 mg/kg, Day 10): 0/7
Clinical sign: Major organs (toxicological changes, animals affected/total) ([2]; 250 mg/kg, Day 10): 0/7
Clinical sign: Thoracic cavity (toxicological changes, animals affected/total) ([2]; 250 mg/kg, Day 10): 0/7
Mortality (animals dead/total) ([2]; 250 mg/kg, Day 10): 0/7
Clinical sign: Abdominal cavity (toxicological changes), Total ([2]; 250 mg/kg): 0
Clinical sign: Major organs (toxicological changes), Total ([2]; 250 mg/kg): 0
Clinical sign: Thoracic cavity (toxicological changes), Total ([2]; 250 mg/kg): 0
Mortality, Total ([2]; 250 mg/kg): 0
Clinical sign: Abdominal cavity (toxicological changes, animals affected/total) ([2]; 500 mg/kg, Day 1): 0/7
Clinical sign: Major organs (toxicological changes, animals affected/total) ([2]; 500 mg/kg, Day 1): 0/7
Clinical sign: Thoracic cavity (toxicological changes, animals affected/total) ([2]; 500 mg/kg, Day 1): 0/7
Mortality (animals dead/total) ([2]; 500 mg/kg, Day 1): 0/7
Clinical sign: Abdominal cavity (toxicological changes, animals affected/total) ([2]; 500 mg/kg, Day 7): 0/7
Clinical sign: Major organs (toxicological changes, animals affected/total) ([2]; 500 mg/kg, Day 7): 0/7
Clinical sign: Thoracic cavity (toxicological changes, animals affected/total) ([2]; 500 mg/kg, Day 7): 0/7
Mortality (animals dead/total) ([2]; 500 mg/kg, Day 7): 0/7
Clinical sign: Abdominal cavity (toxicological changes, animals affected/total) ([2]; 500 mg/kg, Day 8): 0/7
Clinical sign: Major organs (toxicological changes, animals affected/total) ([2]; 500 mg/kg, Day 8): 0/7
Clinical sign: Thoracic cavity (toxicological changes, animals affected/total) ([2]; 500 mg/kg, Day 8): 0/7
Mortality (animals dead/total) ([2]; 500 mg/kg, Day 8): 0/7
Clinical sign: Abdominal cavity (toxicological changes, animals affected/total) ([2]; 500 mg/kg, Day 9): 0/7
Clinical sign: Major organs (toxicological changes, animals affected/total) ([2]; 500 mg/kg, Day 9): 0/7
Clinical sign: Thoracic cavity (toxicological changes, animals affected/total) ([2]; 500 mg/kg, Day 9): 0/7
Mortality (animals dead/total) ([2]; 500 mg/kg, Day 9): 0/7
Clinical sign: Abdominal cavity (toxicological changes, animals affected/total) ([2]; 500 mg/kg, Day 10): 0/7
Clinical sign: Major organs (toxicological changes, animals affected/total) ([2]; 500 mg/kg, Day 10): 0/7
Clinical sign: Thoracic cavity (toxicological changes, animals affected/total) ([2]; 500 mg/kg, Day 10): 0/7
Mortality (animals dead/total) ([2]; 500 mg/kg, Day 10): 0/7
Clinical sign: Abdominal cavity (toxicological changes), Total ([2]; 500 mg/kg): 0
Clinical sign: Major organs (toxicological changes), Total ([2]; 500 mg/kg): 0
Clinical sign: Thoracic cavity (toxicological changes), Total ([2]; 500 mg/kg): 0
Mortality, Total ([2]; 500 mg/kg): 0
Clinical sign: Abdominal cavity (toxicological changes, animals affected/total) ([2]; 1000 mg/kg, Day 1): 0/7
Clinical sign: Major organs (toxicological changes, animals affected/total) ([2]; 1000 mg/kg, Day 1): 0/7
Clinical sign: Thoracic cavity (toxicological changes, animals affected/total) ([2]; 1000 mg/kg, Day 1): 0/7
Mortality (animals dead/total) ([2]; 1000 mg/kg, Day 1): 0/7
Clinical sign: Abdominal cavity (toxicological changes, animals affected/total) ([2]; 1000 mg/kg, Day 7): 0/7
Clinical sign: Major organs (toxicological changes, animals affected/total) ([2]; 1000 mg/kg, Day 7): 0/7
Clinical sign: Thoracic cavity (toxicological changes, animals affected/total) ([2]; 1000 mg/kg, Day 7): 0/7
Mortality (animals dead/total) ([2]; 1000 mg/kg, Day 7): 0/7
Clinical sign: Abdominal cavity (toxicological changes, animals affected/total) ([2]; 1000 mg/kg, Day 8): 0/7
Clinical sign: Major organs (toxicological changes, animals affected/total) ([2]; 1000 mg/kg, Day 8): 0/7
Clinical sign: Thoracic cavity (toxicological changes, animals affected/total) ([2]; 1000 mg/kg, Day 8): 0/7
Mortality (animals dead/total) ([2]; 1000 mg/kg, Day 8): 0/7
Clinical sign: Abdominal cavity (toxicological changes, animals affected/total) ([2]; 1000 mg/kg, Day 9): 0/7
Clinical sign: Major organs (toxicological changes, animals affected/total) ([2]; 1000 mg/kg, Day 9): 0/7
Clinical sign: Thoracic cavity (toxicological changes, animals affected/total) ([2]; 1000 mg/kg, Day 9): 0/7
Mortality (animals dead/total) ([2]; 1000 mg/kg, Day 9): 0/7
Clinical sign: Abdominal cavity (toxicological changes, animals affected/total) ([2]; 1000 mg/kg, Day 10): 0/7
Clinical sign: Major organs (toxicological changes, animals affected/total) ([2]; 1000 mg/kg, Day 10): 0/7
Clinical sign: Thoracic cavity (toxicological changes, animals affected/total) ([2]; 1000 mg/kg, Day 10): 0/7
Mortality (animals dead/total) ([2]; 1000 mg/kg, Day 10): 0/7
Clinical sign: Abdominal cavity (toxicological changes), Total ([2]; 1000 mg/kg): 0
Clinical sign: Major organs (toxicological changes), Total ([2]; 1000 mg/kg): 0
Clinical sign: Thoracic cavity (toxicological changes), Total ([2]; 1000 mg/kg): 0
Mortality, Total ([2]; 1000 mg/kg): 0
toxicological changes (abdomen, chest and major organs) ([2]; 250, 500, 1000 mg/kg single oral, autopsy on last day): not observed
